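Protocol summary: plate cells (96-well), add compound at 5 concentrations, incubate 48 h, interpolate endpoints linearly. Abbreviation: GI50, concentration required for 50% inhibition of growth.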 Calls of active or inactive are those of the source. Rule as the data show it: active = GI50 up to about 1.1 µM and inactive = higher.
Assays:
Experiment in all cases: inhibition of tumour cell growth, NCI panel, 48 h
ACHN = tested on: ACHN
COLO 205 = tested on: COLO 205
HCC 2998 = tested on: HCC 2998
HCT-116 = tested on: HCT-116
HCT-15 = tested on: HCT-15
HOP-92 = tested on: HOP-92
HT-29 = tested on: HT-29
Hs-578T = tested on: Hs-578T
MDA-MB-435 = tested on: MDA-MB-435
MDA-N = tested on: MDA-N
NCI-H23 = tested on: NCI-H23
NCI-H522 = tested on: NCI-H522
OVCAR-4 = tested on: OVCAR-4
PC-3 = tested on: PC-3
RXF 393 = tested on: RXF 393
SK-MEL-2 = tested on: SK-MEL-2
SK-MEL-5 = tested on: SK-MEL-5
SR = tested on: SR
UACC-257 = tested on: UACC-257

Structure (SMILES) | GI50 (ACHN) | GI50 (COLO 205) | GI50 (HCC 2998) | GI50 (HCT-116) | GI50 (HCT-15) [µM] | GI50 (HOP-92) | GI50 (HT-29) | GI50 (Hs-578T) | GI50 (MDA-MB-435) | GI50 (MDA-N) | GI50 (NCI-H23) | GI50 (NCI-H522) | GI50 (OVCAR-4) | GI50 (PC-3) | GI50 (RXF 393) | GI50 (SK-MEL-2) | GI50 (SK-MEL-5) | GI50 (SR) | GI50 (UACC-257)
NC(=O)C(=CNC(=S)Nc1ccc(S(=O)(=O)Nc2ccccn2)cc1)C(N)=O | > 100 µM (inactive) | > 100 µM (inactive) | > 10 µM (inactive) | 46.7 µM (inactive) | > 78 | > 100 µM (inactive) | > 100 µM (inactive) | > 100 µM (inactive) | > 100 µM (inactive) | > 93.8 µM (inactive) | > 100 µM (inactive) | 50.5 µM (inactive) | > 100 µM (inactive) | > 100 µM (inactive) | > 100 µM (inactive) | > 100 µM (inactive) | > 100 µM (inactive) | 41.5 µM (inactive) | > 100 µM (inactive)
CCOC1CN=C(Nc2cccc3ccccc23)S1 (configuration not stated) | > 10 µM (inactive) | > 10 µM (inactive) | > 10 µM (inactive) | > 10 µM (inactive) | > 10 | > 10 µM (inactive) | > 10 µM (inactive) | > 10 µM (inactive) | > 10 µM (inactive) | > 10 µM (inactive) | > 10 µM (inactive) | > 10 µM (inactive) | > 10 µM (inactive) | > 10 µM (inactive) | > 10 µM (inactive) | > 10 µM (inactive) | > 10 µM (inactive) | > 10 µM (inactive) | > 10 µM (inactive)
C=CCNC(=O)NC(=O)CSC1=NC(=O)C2(NN1)c1ccccc1-c1ccccc12 | > 10 µM (inactive) | > 10 µM (inactive) | > 10 µM (inactive) | > 10 µM (inactive) | > 10 | > 10 µM (inactive) | > 10 µM (inactive) | 9.51 µM (inactive) | > 10 µM (inactive) | > 10 µM (inactive) | > 10 µM (inactive) | > 10 µM (inactive) | > 10 µM (inactive) | > 10 µM (inactive) | > 10 µM (inactive) | – | > 10 µM (inactive) | > 10 µM (inactive) | > 10 µM (inactive)
O=C1CC(=O)NC(NN2C(=O)/C(=C/c3ccc(Cl)cc3)N=C2c2ccccc2)=N1 | 17.4 µM (inactive) | 16.8 µM (inactive) | 11.7 µM (inactive) | 15.8 µM (inactive) | 15 | 12.4 µM (inactive) | 16.4 µM (inactive) | 14.3 µM (inactive) | 15.2 µM (inactive) | 15.8 µM (inactive) | 16 µM (inactive) | 10.1 µM (inactive) | 5.64 µM (inactive) | 14 µM (inactive) | 14.1 µM (inactive) | 15.5 µM (inactive) | 17.7 µM (inactive) | 4.71 µM (inactive) | 17.8 µM (inactive)
O=[N+]([O-])c1cccc2nc3ccccc3c(NCCCN3CCCCC3)c12 | 0.0139 µM (active) | < 0.0107 µM (active) | < 0.01 µM (active) | < 0.01 µM (active) | 0.0158 | < 0.01 µM (active) | < 0.01 µM (active) | 0.0385 µM (active) | 0.0106 µM (active) | 0.0102 µM (active) | < 0.01 µM (active) | < 0.01 µM (active) | < 0.01 µM (active) | < 0.01 µM (active) | 0.0101 µM (active) | 0.0148 µM (active) | < 0.011 µM (active) | < 0.01 µM (active) | 0.0219 µM (active)
C/C(=N\NC(=S)N1CCCCC1)c1nc2cccnc2[nH]1 | 3.95 µM (inactive) | 4.51 µM (inactive) | 20.2 µM (inactive) | 4.19 µM (inactive) | 5.81 | 7.48 µM (inactive) | 4.3 µM (inactive) | 38.8 µM (inactive) | 15.1 µM (inactive) | 14.6 µM (inactive) | 13.6 µM (inactive) | 12.9 µM (inactive) | 4.24 µM (inactive) | 5.3 µM (inactive) | – | 22 µM (inactive) | 4.03 µM (inactive) | 3.64 µM (inactive) | 8 µM (inactive)
CC1(C=O)CCC23COC4(CCC5C6(C)CCC(OC7OCC(OC8OC(CO)C(O)C(OC9OC(CO)C(O)C(O)C9O)C8OC8OCC(O)C(O)C8O)C(O)C7OC7OC(CO)C(O)C(O)C7O)C(C)(C)C6CCC5(C)C4(C)CC2O)C3C1 (configuration not stated) | 1.3 µM (inactive) | 1.3 µM (inactive) | 1.01 µM (active) | 1.44 µM (inactive) | 1.53 | 0.381 µM (active) | 0.849 µM (active) | 1.5 µM (inactive) | 1.48 µM (inactive) | 0.557 µM (active) | 1.76 µM (inactive) | 1.68 µM (inactive) | 1.16 µM (inactive) | 1.38 µM (inactive) | – | 1.57 µM (inactive) | 1.61 µM (inactive) | 0.132 µM (active) | 1.75 µM (inactive)
CN(C)C1(C(=O)O)CC1 | > 100 µM (inactive) | – | > 100 µM (inactive) | > 100 µM (inactive) | > 100 | > 100 µM (inactive) | > 100 µM (inactive) | > 100 µM (inactive) | > 100 µM (inactive) | > 100 µM (inactive) | > 100 µM (inactive) | > 100 µM (inactive) | > 100 µM (inactive) | > 100 µM (inactive) | > 100 µM (inactive) | – | > 100 µM (inactive) | > 100 µM (inactive) | > 100 µM (inactive)

Reference: ChEMBL document CHEMBL1201862, “PubChem BioAssay data set” (2004)
